Publication PMC10562414, “GLP-1R signaling neighborhoods associate with the susceptibility to adverse drug reactions of incretin mimetics” (Nature Communications, 2023)

Target: GLP-1R (Homo sapiens, UniProt P43220)
Assay: ebBRET pathway activation (effector membrane translocation, 15 pathways) at the plasma membrane (rGFP-CAAX)
Format: cell-based
Set-up: Potency (logEC50): scale not given here
Details: for Efficacy (normalized) / Emax / Potency (logEC50): Plasma membrane; for Efficacy (normalized): Fig. 2c; for Potency (logEC50): Fig. 2d
[1] = plasma membrane rGFP-CAAX, HEK293, PDZRhoGEF-RlucII, agonist incubation 0 min, as tabulated for polar area diagram, n=3-6
[2] = plasma membrane rGFP-CAAX, HEK293, Rap1Gap-RlucII, agonist incubation 0 min, as tabulated for polar area diagram, n=3-6
[3] = plasma membrane rGFP-CAAX, HEK293, Rap1Gap-RlucII, agonist incubation 0 min, normalized to the highest responding drug, F test P < 0.00625, n=3-6
[4] = plasma membrane rGFP-CAAX, HEK293, p63RhoGEF-RlucII, agonist incubation 0 min, as tabulated for polar area diagram, n=3-6
[5] = plasma membrane rGFP-CAAX, HEK293, p63RhoGEF-RlucII, agonist incubation 0 min, normalized to the highest responding drug, F test P < 0.00625, n=3-6

Sequence of GLP-1R (P43220 24-463): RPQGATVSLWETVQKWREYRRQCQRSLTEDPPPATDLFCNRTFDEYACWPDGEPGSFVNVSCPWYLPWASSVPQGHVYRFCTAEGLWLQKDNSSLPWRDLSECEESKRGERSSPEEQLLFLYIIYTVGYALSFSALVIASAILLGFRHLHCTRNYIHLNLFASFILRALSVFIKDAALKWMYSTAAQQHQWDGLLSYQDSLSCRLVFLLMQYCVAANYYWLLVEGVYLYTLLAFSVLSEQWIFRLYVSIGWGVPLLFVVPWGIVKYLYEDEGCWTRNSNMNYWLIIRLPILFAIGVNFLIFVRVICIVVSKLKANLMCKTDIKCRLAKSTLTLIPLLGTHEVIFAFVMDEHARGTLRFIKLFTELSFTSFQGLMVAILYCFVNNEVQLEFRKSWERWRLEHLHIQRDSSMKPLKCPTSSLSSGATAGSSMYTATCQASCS

## N#Cc1ccc(COc2cccc(C3CCN(Cc4nc5ccc(C(=O)O)cc5n4C[C@@H]4CCO4)CC3)n2)c(F)c1 [Danuglipron]
15 pathways, HEK293, ebBRET
  pathway activation at the plasma membrane, in words: biased away from βARR towards Gs and Gi/o
GRK2/Gβγ
  Efficacy (normalized): 0.6954
GRK/Gβγ
  Emax: 0.5067
Gα11
  Emax: 0
  Efficacy (normalized): 0
  Potency (logEC50): 0
Gα12
  Emax: 0
  Efficacy (normalized): 0
  Potency (logEC50): 0
Gα13
  Emax: 0
  Efficacy (normalized): 0
  Potency (logEC50): 0
Gα14
  Emax: 0
  Efficacy (normalized): 0
  Potency (logEC50): 0
Gα15
  Emax: 0
  Efficacy (normalized): 0
  Potency (logEC50): 0
Gαi1
  Emax: 0.0218
  Efficacy (normalized): 0.3729
  Potency (logEC50): 0.3182
Gαi2
  Emax: 0.2304
  Efficacy (normalized): 0.9309
  Potency (logEC50): 0.1266
Gαi3
  Emax: 0.03983
  Efficacy (normalized): 0.6445
  Potency (logEC50): 0.2454
GαoA
  Emax: 0
  Efficacy (normalized): 0
  Potency (logEC50): 0
GαoB
  Emax: 0.4329
  Efficacy (normalized): 0.5975
  Potency (logEC50): 0.326
Gαq
  Emax: 0
  Efficacy (normalized): 0
  Potency (logEC50): 0
Gαs
  Emax: 1.832
  Efficacy (normalized): 0.7714
  Potency (logEC50): 0.5221
Gαz
  Emax: 0.2013
  Efficacy (normalized): 0.678
  Potency (logEC50): 0.3391
βARR
  Emax: 0.3843
βARR2
  Efficacy (normalized): 0.2947
Plasma membrane rGFP-CAAX, HEK293, GRK2-D110A-RlucII, agonist incubation 0 min, normalized to the highest responding drug, F test P < 0.00625, n=3-6
  Efficacy (normalized), GRK2/Gβγ: 0.6954
[1]
  Potency (logEC50), Gα12: 0
  Potency (logEC50), Gα13: 0
Plasma membrane rGFP-CAAX, HEK293, PDZRhoGEF-RlucII, agonist incubation 0 min, normalized to the highest responding drug, F test P < 0.00625, n=3-6
  Efficacy (normalized), Gα13: 0
[2]
  Potency (logEC50), Gαi1: 0.3182
  Potency (logEC50), Gαi2: 0.1266
  Potency (logEC50), Gαi3: 0.2454
  Potency (logEC50), GαoA: 0
  Potency (logEC50), GαoB: 0.326
  Potency (logEC50), Gαz: 0.3391
[3]
  Efficacy (normalized), Gαi1: 0.3729
  Efficacy (normalized), Gαi2: 0.9309
  Efficacy (normalized), Gαi3: 0.6445
  Efficacy (normalized), GαoA: 0
  Efficacy (normalized), GαoB: 0.5975
  Efficacy (normalized), Gαz: 0.678
Plasma membrane rGFP-CAAX, HEK293, Rluc8-mGs, agonist incubation 0 min, as tabulated for polar area diagram, n=3-6
  Potency (logEC50), Gαs: 0.5221
Plasma membrane rGFP-CAAX, HEK293, Rluc8-mGs, agonist incubation 0 min, normalized to the highest responding drug, F test P < 0.00625, n=3-6
  Efficacy (normalized), Gαs: 0.7714
[4]
  Potency (logEC50), Gα11: 0
  Potency (logEC50), Gα14: 0
  Potency (logEC50), Gα15: 0
  Potency (logEC50), Gαq: 0
[5]
  Efficacy (normalized), Gα11: 0
  Efficacy (normalized), Gα14: 0
  Efficacy (normalized), Gα15: 0
  Efficacy (normalized), Gαq: 0
Plasma membrane rGFP-CAAX, HEK293, β-arrestin-2-RlucII, agonist incubation 0 min, normalized to the highest responding drug, F test P < 0.00625, n=3-6
  Efficacy (normalized), βARR2: 0.2947
